In this experiment the target is S. pneumoniae Topoisomerase IV ATPase (ParE) (Streptococcus pneumoniae serotype 4, UniProt Q59961). The experiment is described as follows: S. pneumoniae Topoisomerase IV ATPase inhibition. The conditions noted are these: values marked * are an average of two or more data points, read-out: % Inh (13 μM) of S. pneumoniae Topoisomerase IV ATPase. The format is biochemical. The method in brief: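 Phosphate-release ATPase assay: 1.25 nM ParE, 160 μM ATP, DNA-stimulated. Quench with malachite green/molybdate in 1 M HCl, read 650 nm; IC50 from 10-point dose series.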
Chain of S. pneumoniae Topoisomerase IV ATPase (ParE) (Q59961 whole entry): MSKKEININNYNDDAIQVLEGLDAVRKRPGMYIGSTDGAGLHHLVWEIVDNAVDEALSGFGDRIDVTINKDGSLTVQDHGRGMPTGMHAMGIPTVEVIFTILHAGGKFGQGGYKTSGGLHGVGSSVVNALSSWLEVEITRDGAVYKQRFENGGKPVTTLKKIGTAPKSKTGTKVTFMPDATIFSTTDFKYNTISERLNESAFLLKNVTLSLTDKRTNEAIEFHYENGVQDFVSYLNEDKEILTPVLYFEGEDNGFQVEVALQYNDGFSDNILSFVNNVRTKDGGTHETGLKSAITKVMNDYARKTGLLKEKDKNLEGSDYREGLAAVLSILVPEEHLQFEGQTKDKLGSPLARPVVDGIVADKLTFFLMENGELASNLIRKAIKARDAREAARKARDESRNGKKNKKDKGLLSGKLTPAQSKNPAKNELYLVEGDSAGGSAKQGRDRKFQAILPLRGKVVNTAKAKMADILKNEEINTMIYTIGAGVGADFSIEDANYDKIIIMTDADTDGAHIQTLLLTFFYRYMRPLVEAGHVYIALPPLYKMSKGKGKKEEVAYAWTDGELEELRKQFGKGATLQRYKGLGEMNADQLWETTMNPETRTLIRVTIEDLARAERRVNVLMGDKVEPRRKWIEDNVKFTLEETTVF
On to `CCNC(=O)c1cncc(-c2cnc(Nc3ccc(F)c(Cl)c3)nc2-n2ccc(C(F)(F)F)n2)c1` [Example 1125, 5-[2-[(3-chloro-4-fluorophenyl)amino]-4-[3-(trifluoromethyl)pyrazol-1-yl]pyrimidin-5-yl]-N-ethylpyridine-3-carboxamide], for which the inhibition at 13 µM was 51%.
The value for `COCCCNc1nc(Nc2ccc(F)c(Cl)c2)ncc1-c1nc(-c2cncn2C)cs1` [Example 504, N^2-(3-chloro-4-fluorophenyl)-N^4-(3-methoxypropyl)-5-[4-(1-methyl-1H-imidazol-5-yl)-1,3-thiazol-2-yl]pyrimidine-2,4-diamine] was 83%; that for `COCCCNc1nc(Nc2ccc(F)c(Cl)c2)ncc1-c1nc(C(=O)OC)cs1` [Example 212, Methyl 2-(2-(3-chloro-4-fluorophenylamino)-4-(3-methoxypropylamino)pyrimidin-5-yl)thiazole-4-carboxylate] was 14.5%; that for `O=C(O)/C=C/c1cccc(-c2cnc(Nc3ccc(F)c(F)c3)nc2N2CCOCC2)c1` [Example 350, (E)-3-(3-(2-(3,4-difluorophenylamino)-4-morpholinopyrimidin-5-yl)phenyl)acrylic acid] was 69%.
The value for `COCCOc1ncc(-c2cnc(Nc3ccc(F)c(Cl)c3)nc2-n2ccc(C(F)(F)F)n2)cc1C(=O)O` [Example 1133, 5-(2-(3-chloro-4-fluorophenylamino)-4-(3-(trifluoromethyl)-1H-pyrazol-1-yl)pyrimidin-5-yl)-2-(2-methoxyethoxy)nicotinic acid] was 100%; that for `CN(C)CCCNc1nc(Nc2ccc(F)c(Cl)c2)ncc1-c1ccc(C(=O)O)cc1` [Example 216, 4-(2-[(3-chloro-4-fluorophenyl)amino]-4-{[3-(dimethylamino)propyl]amino}pyrimidin-5-yl)benzoic acid] was 96.3%; that for `COc1cc(Nc2ncc(-c3cnc(OCCCS(C)(=O)=O)c(C(=O)NS(C)(=O)=O)c3)c(-n3ccc(C(F)(F)F)n3)n2)cc(OC)c1` [Example 971, (2-(3,5-dimethoxyphenylamino)-4-(3-(trifluoromethyl)-1H-pyrazol-1-yl)pyrimidin-5-yl)-N-(methylsulfonyl)-2-(3-(methylsulfonyl)propoxy)nicotinamide] was 100%.
Next, `Cc1cc(C#N)cc(Nc2ncc(-c3cncc(C(=O)O)c3)c(-n3ccc(C(F)(F)F)n3)n2)c1` [Example 784, 5-{2-[(3-cyano-5-methylphenyl)amino]-4-[3-(trifluoromethyl)-1H-pyrazol-1-yl]pyrimidin-5-yl}pyridine-3-carboxylic acid]: 70%.
`CCOC(=O)c1cncc(-c2cnc(Nc3ccc(F)c(Cl)c3)nc2N2CCC(C(=O)NC)CC2)c1` [Example 120, ethyl 5-[2-[(3-chloro-4-fluorophenyl)amino]-4-[4-(methylcarbamoyl)piper-idin-1-yl]pyrimidin-5-yl]pyridine-3-carboxylate]: the inhibition at 13 µM came to 73.9%.
In the case of `NC(=O)c1cccc(-c2cnc(Nc3ccc(F)c(Cl)c3)nc2-n2ccc(C(F)(F)F)n2)c1` [Example 1147, 3-(2-(3-chloro-4-fluorophenylamino)-4-(3-(trifluoromethyl)-1H-pyrazol-1-yl)pyrimidin-5-yl)benzamide], the inhibition at 13 µM amounted to 100%.
Next, `O=C(O)c1cncc(-c2cnc(Nc3ccc(F)c(Cl)c3)nc2NCc2cccnc2)c1` [Example 223, 5-{2-(3-Chloro-4-fluoro-phenylamino)-4-[(pyridin-3-ylmethyl)-amino]-pyrimidin-5-yl}-nicotinic acid]: 77.4%.
Take `COc1cc(Nc2ncc(-c3cnc(OCCCS(C)(=O)=O)c(C(=O)O)c3)c(-n3nc(C(F)(F)F)cc3C)n2)cc(OC)c1` [Example 967, 5-(2-(3,5-dimethoxyphenylamino)-4-(5-methyl-3-(trifluoromethyl)-1H-pyrazol-1-yl)pyrimidin-5-yl)-2-(3-(methylsulfonyl)propoxy)nicotinic acid]: the inhibition at 13 µM is 100%.
The value for `CCNS(=O)(=O)c1cncc(-c2cnc(Nc3ccc(F)c(Cl)c3)nc2-n2ccc(C(F)(F)F)n2)c1` [Example 1000, 5-(2-(3-Chloro-4-fluorophenylamino)-4-(3-(trifluoromethyl)-1H-pyrazol-1-yl)pyrimidin-5-yl)-N-ethylpyridine-3-sulfonamide] was 64%; that for `COc1cc(F)cc(Nc2ncc(-c3cnc(OC)c(C(=O)NS(C)(=O)=O)c3)c(-n3nc(C(F)(F)F)cc3C)n2)c1` [Example 900, 5-(2-(3-fluoro-5-methoxyphenylamino)-4-(5-methyl-3-(trifluoromethyl)-1H-pyrazol-1-yl)pyrimidin-5-yl)-2-methoxy-N-(methylsulfonyl)nicotinamide] was 100%.
Next, `CCOC(=O)/C=C/c1cccc(-c2cnc(Nc3ccc(F)c(Cl)c3)nc2NC(COC)COC)c1` [Example 173, (E)-ethyl 3-(3-(2-(3-chloro-4-fluorophenylamino)-4-(1,3-dimethoxypropan-2-ylamino)pyrimidin-5-yl)phenyl)acrylate]: 34.7%; `COc1ncc(-c2cnc(Nc3ccc(F)c(Cl)c3)nc2-n2ccc(C(F)(F)F)n2)cc1C(=O)NS(C)(=O)=O` [Example 1024, 5-(2-(3-Chloro-4-fluorophenylamino)-4-(3-(trifluoromethyl)-1H-pyrazol-1-yl)pyrimidin-5-yl)-2-methoxy-N-(methylsulfonyl)nicotinamide]: 100%.
`O=C(O)Cn1cc(-c2cnc(Nc3ccc(F)c(Cl)c3)nc2N2CCOCC2)cn1` [Example 485, (4-{2-[(3-chloro-4-fluorophenyl)amino]-4-(morpholin-4-yl)pyrimidin-5-yl}-1H-pyrazol-1-yl)acetic acid]: the inhibition at 13 µM was 85%.
The value for `COc1cc(C)cc(Nc2ncc(-c3cncc(C(=O)O)c3)c(-n3ccc(C(F)(F)F)n3)n2)c1` [Example 776, 5-{2-[(3-methoxy-5-methylphenyl)amino]-4-[3-(trifluoromethyl)-1H-pyrazol-1-yl]pyrimidin-5-yl}pyridine-3-carboxylic acid] was 100%; that for `COc1cc(Nc2ncc(-c3cncc(C(=O)O)c3)c(-n3nc(C(F)(F)F)cc3C)n2)cc(S(C)(=O)=O)c1` [Example 673, 5-(2-{[3-methoxy-5-(methylsulfonyl)phenyl]amino}-4-[5-methyl-3-(trifluoromethyl)-1H-pyrazol-1-yl]pyrimidin-5-yl)pyridine-3-carboxylic acid] was 100%.
The value for `Fc1ccc(Nc2ncc(-c3cncnc3)c(NCc3ccncc3)n2)cc1Cl` [Example 40, N^2-(3-chloro-4-fluorophenyl)-N^4-(pyridin-4-ylmethyl)-5-pyrimidin-5-ylpyrimidine-2,4-diamine] was 72.4%.
The value for `CONC(=O)c1cncc(-c2cnc(Nc3ccc(F)c(Cl)c3)nc2NCCc2cccnc2)c1` [Example 476, 5-(2-[(3-chloro-4-fluorophenyl)amino]-4-{[2-(pyridin-3-yl)ethyl]amino}pyrimidin-5-yl)-N-methoxypyridine-3-carboxamide] was 100%.
As for `COc1cc(F)cc(Nc2ncc(-c3cnc(OC)c(C(=O)O)c3)c(-n3ccc(C(F)(F)F)n3)n2)c1` [Example 923, 5-(2-(3-fluoro-5-methoxyphenylamino)-4-(3-(trifluoromethyl)-1H-pyrazol-1-yl)pyrimidin-5-yl)-2-methoxynicotinic acid], the inhibition at 13 µM was 100%.

The record behind these values is patent US20100137313A1 (ASTRAZENECA AB, priority 2008, published 2010).
